Results from patent publication US20250073014A1, “METHODS, DEVICES AND SYSTEMS FOR TREATING NEOINTIMAL GROWTH” (priority 2022, published 2025).
Like-named read-outs stand apart in the source and are kept apart here. One block for each molecule: values may come before it.

Key:
[1] = set-up: species or system Yorkshire swine; conditions: female, Yorkshire, pig, in vivo
Protocol: Formulations: Two Different Formulations were Prepared: • 1. […] Sirolimus was encapsulated in gelatin nanoparticles (GNP).
An incision of 5-8 cm was made alongside the femoral (or carotid) artery, and surrounding muscle and perivascular fascia were bluntly dissected to expose the artery.
The HPLC facility isolated the paclitaxel in usual manner and sirolimus was isolated with an addition step of enzymatic digesting of the GNP with trypsin at 37° C. before the analysis of each of them by Liquid Chromatography with tandem mass spectrometry (LC-MS-MS). • 1. Paclitaxel on day 1 in both the arteries with the final concentration of 12 ng/g in the first artery and 5.2 ng/g in second artery was detected by LC-MS/MS. The solution that was evacuated after 5 min of the formulation in the test site was evaluated by LC-MS/MS to detect 15% (75 mg) of the initial concentration of injected paclitaxel solution. […] Only few nanograms were detected in 24 h and that could indicate that probably 100% DMSO as a carrier took away the paclitaxel from the site to other region of the leg muscles that were not evaluated.

[2] = tested on: cholesterol-induced atherosclerosis; conditions: cited from earlier work
[3] = Rapamycin delivery in isolated porcine carotid artery (LC-MS/MS of tissue and washings); format: in vitro ADME
Protocol: Sirolimus/Rapamycin was analyzed using an LC-MS/MS system consisting of an Agilent 1290 (San Jose, CA, USA) coupled to electrospray ionization on a triple quadrupole mass spectrometer (Agilent 6460, San Jose, CA, USA) equipped with a turbo ion spray interface in negative ionization mode, and an Agilent LC 1200 Binary pump system (Agilent Technologies, Santa Clara, CA, USA). Ascomycin was used as an internal standard (IS). A Gemini 5 μm NX-C18 110 Å, LC Column polar-RP 80A column (50×2 mm, Phenomenex, Torrance, CA, USA) equipped with a Security Guard™ column (4.0 mm×3.0 mm) was utilized to optimally separate sirolimus and the internal standard from endogenous substances of porcine carotid artery. The mobile phase was a mixture of 20 mM ammonium acetate (A) and methanol (B). Sample separation was conducted using a flow rate of 0.2 mL/min and a 10-min gradient condition (0-1 min: 20% B, 1-6 min: 100% B, 6-7 min: 100% B, 7.1-10 min: 20% B). The injection volume was […] for calibration and carotid artery samples. The selected reaction monitoring transitions of m/z 912.5→371.2 and m/z 790.5→530.3 were applied for sirolimus and IS, respectively. Mass data were acquired using Analyst software version 1.5.2 (Applied Biosystems-SCIEX, Concord, ON, Canada). Data analysis was processed using SCIEX OS offline software version 1.6 (Applied Biosystems-SCIEX, Concord, ON, Canada).
Sirolimus/Rapamycin was dissolved in acetonitrile to prepare a stock solution (1 mg/mL) and including IS with 2 ng/μL and were gradually diluted by the serial dilution method using calibrated pipettes (2-20 μL, 10-100 μL and 100-1000 μL), in order to obtain working stock dilutions at decreasing concentrations ([…]). These solutions were used for the preparation of mass spectrometry optimization, calibration curve and quality control standards in DMSO and carotid artery homogenates. These stock solutions and stock dilutions were stored at −20° C., respectively.
Sirolimus/Rapamycin was dissolved in DMSO to prepare a final concentration of 100 mg/mL (stock solution) and stored at −80° C. The porcine carotid arteries were washed 5 times in PBS (1×) to remove all the blood and fluids, followed by cutting them into 40 mm length. The surface area (SA) of the artery was calculated to be 628 mm^2 (lateral SAcylinder=2πrh; π=3.14, r=2.5 mm, and h=40 mm). The Rapamycin solution was diluted in DMSO to prepare […] (2 μg/mm^2). One of the carotid arteries was tied at one end and then it was filled with 0.5 mL of Rapamycin solution ([Rapamycin]0=628 μg/mL) then the open end was tied. After a 5-minute treatment, the solution was drained out, then arteries were washed with 5×0.2 mL of PBS (1×) which was also collected for the analysis. A similar experiment was performed as a biological duplicate. The arteries and the washings were then analyzed for the presence of Sirolimus/Rapamycin for determining the amount that was absorbed by the tissues compared to the amount that was washed out for use as a model.
Treated and untreated porcine carotid artery segments (100 mg, 2 mm) were shredded in methanol with a surgical blade and transferred to a 2 ml tube with a total volume of 1 ml methanol and 100 μL of internal standard (1 ng/ml). This tube contained garnet beads/shards for homogenizing tissue. Then a Qiagen Tissue Lyser LT was used to beat the artery shreds at 50 Hz for 10 minutes. The supernatant was dried down completely under a gentle stream of nitrogen using a nitrogen evaporator. The samples were resuspended in 100 μL of DMSO and placed in inserted universal autosampler vials prior to analysis.

[4] = Stability and solubility of rapamycin in DMSO and DMSO/saline; format: physicochemical; conditions: in DMSO at −20° C.
Source text: The rapamycin solution in DMSO could be further diluted either in saline, PBS, or distilled water.
The best working solution is considered to be 50/50 DMSO/water i.e., 50% of the DMSO in solution. This could be envisioned valid if instead of saline blood is used.

- Findings around the site of delivery when sutures were opened (in vivo): a lot of dead tissues and blood clots
- Drug in solution evacuated after 5 min, % of the initial concentration [1]: 15%
- Drug in solution evacuated after 5 min, amount [1]: 75 mg
- Absorbed by the tissue, % ([1]; 5 min): 85%
- Absorbed by the tissue, amount ([1]; 5 min): 425 mg
Structure (SMILES): CC(=O)O[C@H]1C(=O)[C@@]2(C)[C@H]([C@H](OC(=O)c3ccccc3)[C@]3(O)C[C@H](OC(=O)[C@H](O)[C@@H](NC(=O)c4ccccc4)c4ccccc4)C(C)=C1C3(C)C)[C@]1(OC(C)=O)CO[C@@H]1C[C@@H]2O [Paclitaxel]
- Adverse reaction (edema) (day 7 animal): no edema was observed
- Adverse reaction (edema) (day 14 animal): Same lack of reaction was observed
- Adverse reaction on injected leg (edema) (t=24 h animal): severe edema

Structure (SMILES): C[S+](C)[O-] [DMSO, dimethyl sulfoxide]
- Food intake of rabbits on the atherogenic diet [2]: not suppressed
- Inhibition of aortic lesions ([2]; rabbits on atherogenic diet, 2% (dose, 1.5 g/kg) DMSO): about 50%
- Aortic lesions ([2]; rabbits on atherogenic diet, 4 (3.5 g/kg), 5 (5.5 g/kg) and 6% (9.1 g/kg) DMSO): virtually absent in the majority of rabbits

- % of total drug in 2 mm of artery ([3]; 5-minute treatment, rapamycin in DMSO): 30.13%
- % of total drug in washings (40 mm of artery) ([3]; PBS washings after 5-minute treatment): 0.5%
- Delivery efficiency ([3]; Total Dose 220 ug): 99.55%
- Lost in Blood stream (washed out) ([3]; Total Dose 220 ug): 1 µg
- Remaining in tissue ([3]; Total Dose 220 ug): 68.75 µg
- Remaining in tissue, % of the dose ([3]; Total Dose 220 ug): 30.13 % of the dose
- Stability of rapamycin in DMSO [4]: many months
Structure (SMILES): CO[C@H]1C[C@@H]2CC[C@@H](C)[C@@](O)(O2)C(=O)C(=O)N2CCCC[C@H]2C(=O)O[C@H]([C@H](C)C[C@@H]2CC[C@@H](O)[C@H](OC)C2)CC(=O)[C@H](C)/C=C(\C)[C@@H](O)[C@@H](OC)C(=O)[C@H](C)C[C@H](C)/C=C/C=C/C=C/1C [Rapamycin]
